US20050074829A1, “Methods for identifying inhibitors of sterol 14-alpha-demethylase” (priority 2003, published 2005)

Experiments:
[1] = target: T1, OBT-DM (Arabidopsis thaliana, UniProt Q9SAA9); conditions: for wavelength of maximum absorbance in difference spectrum / wavelength of minimum absorbance in difference spectrum: 0.25 mg/ml OBT-DM in 50 mM HEPES pH 7.2, 1 μL of 1 mM inhibitor added, spectrum 300-500 nm
T1 sequence (Q9SAA9 35-488): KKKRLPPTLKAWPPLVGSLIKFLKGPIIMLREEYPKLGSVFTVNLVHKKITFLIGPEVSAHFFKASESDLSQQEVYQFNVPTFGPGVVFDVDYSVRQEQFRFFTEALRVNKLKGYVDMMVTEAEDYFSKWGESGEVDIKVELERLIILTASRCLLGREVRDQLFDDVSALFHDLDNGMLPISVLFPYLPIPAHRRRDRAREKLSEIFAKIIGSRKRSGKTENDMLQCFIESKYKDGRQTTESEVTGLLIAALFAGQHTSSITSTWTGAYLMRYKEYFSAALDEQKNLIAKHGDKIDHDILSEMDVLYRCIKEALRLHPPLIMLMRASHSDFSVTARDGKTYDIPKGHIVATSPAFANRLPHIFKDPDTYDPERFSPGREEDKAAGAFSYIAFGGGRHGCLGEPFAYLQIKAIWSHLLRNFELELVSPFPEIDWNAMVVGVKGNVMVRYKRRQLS
Method: An OBT-DM solution (0.25 mg/ml) in 50 mM HEPES, pH 7.2, was placed in a micro-quartz cuvette with 1 cm path length. The solution was used to blank a Hewlett Packard 8453 spectrometer. Then 1 μL of a 1 mM solution of type II inhibitor in 50% (v/v) DMSO ethanol was added and the spectrum was acquired between the 300 and 500 nm region.

[2] = target: T1, OBT-DM; assay: 384-well assay for identification of inhibitors of OBT-DM, read at 413 nm with 432 nm as reference; format: binding; design: made in house; host or cells: E. coli Rosetta DE3 pLysS; conditions: 10 μM compound, 0.4 mg/ml OBT-DM, 20 min room temperature; negative control wells 0.09-0.12
Method: The assay was performed using 0.4 mg/ml OBTDM in 50 mM HEPES, pH 7.2, and 0.01% Tween 20 in all wells plus 10 μM Ketoconazole (positive control) in 50 mM HEPES, pH 7.2, and 0.01% Tween 20 in plate rows A-H; 10 μM compounds numbered 1-24 in 50 mM HEPES, pH 7.2, and 0.01% Tween 20 in row I; and 50 mM HEPES, pH 7.2, and 0.01% Tween 20 in rows K-P (negative control).
The assay was set up in a 384-well plate format and initiated by the addition of 40 μl of 20 μM Ketoconazole (ICN Biomedicals, Inc., Irvine, Calif.) in 50 mM HEPES, pH 7.2, 0.01% Tween 20, to rows A-H to a final concentration of 10 μM (positive control) and 40 μl of 50 mM HEPES, pH 7.2, 0.01% Tween 20, to rows K-P (negative control). Test compounds were added to a concentration of 10 μM in row I by manual addition of 40 μl of a 20 μM solution (compounds assigned numbers from 1-24). Then 40 μl of an 0.8 mg/ml solution of OBT-DM protein in 50 mM HEPES, pH 7.2, 0.01% Tween 20 (from Example 2) was added to all wells to a final concentration of 0.4 mg/ml via multidrop.

[3] = target: T2, OBT-DM (Arabidopsis thaliana, UniProt Q9SAA9); assay: Equilibrium inhibitory constant for OBT-DM (no method given); format: binding
T2 sequence (Q9SAA9 1-488): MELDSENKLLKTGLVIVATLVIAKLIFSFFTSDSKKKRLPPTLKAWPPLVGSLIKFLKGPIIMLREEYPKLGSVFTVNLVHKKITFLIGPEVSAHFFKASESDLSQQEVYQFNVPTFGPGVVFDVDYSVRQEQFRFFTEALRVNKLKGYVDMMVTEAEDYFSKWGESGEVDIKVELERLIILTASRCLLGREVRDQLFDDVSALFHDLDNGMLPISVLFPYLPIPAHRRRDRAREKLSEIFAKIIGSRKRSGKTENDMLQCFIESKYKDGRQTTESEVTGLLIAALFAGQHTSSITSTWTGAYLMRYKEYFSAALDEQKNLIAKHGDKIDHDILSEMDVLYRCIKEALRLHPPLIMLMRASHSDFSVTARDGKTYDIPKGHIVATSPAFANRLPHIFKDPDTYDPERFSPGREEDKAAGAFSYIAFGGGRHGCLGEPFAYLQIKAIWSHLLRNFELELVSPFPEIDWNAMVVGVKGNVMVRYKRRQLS

SMILES: OC(Cn1cncn1)(Cn1cncn1)c1ccc(F)cc1F [Compound 2, Fluconazole]
- wavelength of maximum absorbance in difference spectrum [1]: 432 nm
- wavelength of minimum absorbance in difference spectrum [1]: 413 nm

SMILES: Clc1ccccc1C(c1ccccc1)(c1ccccc1)n1ccnc1 [Compound 4, Clotrimazole]
- wavelength of maximum absorbance in difference spectrum [1]: 432 nm
- wavelength of minimum absorbance in difference spectrum [1]: 413 nm

SMILES: Nc1nc[nH]n1 [Compound 10, 3-amino-1,2,4-triazole]
- absorbance reading at 413 nm using 432 nm as reference wavelength [2]: negative result
- Ki [3]: > 10 µM

SMILES: CC(=O)N1CCN(c2ccc(OCC3COC(Cn4ccnc4)(c4ccc(Cl)cc4Cl)O3)cc2)CC1 (stereo not drawn) [Ketoconazole]
- wavelength of maximum absorbance in difference spectrum [1]: 432 nm
- wavelength of minimum absorbance in difference spectrum [1]: 413 nm
- magnitude of the type II difference spectrum signal ([1]; comparison among inhibitors studied): maximum magnitude of the signal
